Experiment [1] deals with T1, Human V2 Vasopressin Receptor (Homo sapiens, UniProt P30518).
T1 construct: expressed in transfected cells; host or cells: mouse fibroblast cell line LV-2
The experiment in a line: Binding to membranes of mouse fibroblast cell line (LV-2) transfected with the cDNA expressing the human V2 vasopressin receptor. The conditions noted are these: LV-2 cell membranes, [3H] Arginine8 vasopressin 0.8 nM, 120 min. As for the experimental part: Flasks of 175 ml capacity, containing attached cells grown to confluence, are cleared of culture medium by aspiration. The flasks containing the attached cells are rinsed with 2×5 ml of phosphate buffered saline (PBS) and the liquid aspirated off each time. Finally, 5 ml of an enzyme free dissociation Hank's based solution (Specialty Media, Inc., Lafayette, N.J.) is added and the flasks are left undisturbed for 2 min. The content of all flasks is poured into a centrifuge tube and the cells pelleted at 300×g for 15 min. […] The homogenate is centrifuged at 1500×g for 10 min to remove ghost membranes. […] Upon completion, the pellet is resuspended in a small volume of 50.0 mM Tris.HCl buffer, pH 7.4. The protein content is determined by the Lowry method and the receptor membranes are suspended in 50.0 mM Tris.HCl buffer containing 0.1 mM phenylmethylsulfonylfluoride (PMSF) and 0.2% bovine serum albumin (BSA) to give 2.5 mg receptor protein per ml of suspension.
Arginine^8, vasopressin (S.A. 75.0 Ci/mmole) at 0.8 nM and the reaction initiated by the addition of 80.0 ml of tissue membranes (200.0 mg tissue protein). […] Non specific binding is assessed in the presence of 1.0 mM of unlabeled ligand, added in 20 ml volume. […] The data are analyzed for IC50 values by the LUNDON-2 program for competition (LUNDON SOFTWARE, Ohio).

Experiment [2] deals with Endogenous Arginine Vasopressin Antidiuretic (V2) Response. The experiment can be described thus: Antagonism of endogenous arginine vasopressin antidiuretic (V2) response in conscious rats (urine volume). It counts as in vivo, Sprague-Dawley rats. The conditions noted are these: oral 10 mg/kg dose, urine collected for 4 hours, no water during test. As for the experimental part: On the day of test, rats were placed individually into metabolic cages equipped with stainless steel screens (to separate the feces from the urine) and funnels for collection of urine. Vehicle or reference agent was given at various oral doses. During the test, rats were not provided with water or food. Urine was collected for four hours after dosing of the test compound. At the end of four hours, urine volume was measured. […] Determinations of Na^+, K^+ and Cl^- ion were carried out using ion specific electrodes in a Beckman SYNCHRON EL-ISE Electrolyte System analyzer.

The structures appear in SMILES notation. Structures can show the parent of a compound that is named as a salt.

T1 sequence (P30518 whole entry): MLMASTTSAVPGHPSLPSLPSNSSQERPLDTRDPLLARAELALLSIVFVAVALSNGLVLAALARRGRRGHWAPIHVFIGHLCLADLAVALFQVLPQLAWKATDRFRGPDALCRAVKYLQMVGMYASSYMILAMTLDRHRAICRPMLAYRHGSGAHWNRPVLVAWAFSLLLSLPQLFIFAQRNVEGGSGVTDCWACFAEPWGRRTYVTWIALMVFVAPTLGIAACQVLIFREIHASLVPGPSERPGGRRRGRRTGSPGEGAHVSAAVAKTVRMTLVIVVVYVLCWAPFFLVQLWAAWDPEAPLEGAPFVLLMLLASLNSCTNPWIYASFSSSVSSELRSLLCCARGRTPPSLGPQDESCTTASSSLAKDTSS

In experiment [1], `Cc1ccc(F)cc1C(=O)Nc1ccc(C(=O)N2Cc3ccc(C(=O)[N-][N+](C)(C)C)n3Cc3ccccc32)c(Cl)c1` [Example 5, 2-[[10-[2-Chloro-4-[(5-fluoro-2-methylbenzoyl)amino]benzoyl]-10,11-dihydro-5H-pyrrolo[2,1-c][1,4]benzodiazepin-3-yl]hydroxymethylenel-1.1,1-trimetpyIpydraziniuminner salt] showed an IC50 of 60 nM. Also, the “Urine Volume (ml/4 hrs) 10 mg/kg rat p.o.” value in experiment [2] amounted to 9.1 ml/4 hrs.
Consider `Cc1ccc(F)cc1C(=O)Nc1ccc(C(=O)N2Cc3ccc(C(=O)N[N+](C)(C)C)n3Cc3ccccc32)c(Cl)c1` [Example 4], for which the “Urine Volume (ml/4 hrs) 10 mg/kg rat p.o.” value in experiment [2] turned out to be 9.2 ml/4 hrs.
Same read-out and setting: the same measure for `CN1CCN(C(=O)c2ccc3n2Cc2ccccc2N(C(=O)c2ccc(NC(=O)c4ccccc4-c4ccccc4)cc2Cl)C3)CC1` [Example 9]: 23.7 ml/4 hrs.
`O=C(Nc1ccc(C(=O)N2Cc3ccc(C(=O)O)n3Cc3ccccc32)c(Cl)c1)c1ccccc1-c1ccccc1` [Example 7]: in experiment [2], the “Urine Volume (ml/4 hrs) 10 mg/kg rat p.o.” value amounted to 19.2 ml/4 hrs.
Same read-out and setting: the same measure for `CN(C)C1CCN(C(=O)c2ccc3n2Cc2ccccc2N(C(=O)c2ccc(NC(=O)c4ccccc4-c4ccccc4)cc2Cl)C3)CC1` [Example 12, Biphenyl-2-carboxylic acid {3-chloro-4-[3-(4-dimethylamino-piperidine-1-carbonyl)-5H,11H-1pyrrolo[2,1-c][1,4]benzodiazeline-10-carbonyl]-phenyl}-amide.]: 21.4 ml/4 hrs; for `O=C(O)CNC(=O)c1ccc2n1Cc1ccccc1N(C(=O)c1ccc(NC(=O)c3ccccc3-c3ccccc3)cc1Cl)C2` [Example 18]: 7.8 ml/4 hrs.
The same measure, in the same setting: in the case of `O=C(Nc1ccc(C(=O)N2Cc3ccc(C(=O)N4CCC(N5CCOCC5)CC4)n3Cc3ccccc32)c(Cl)c1)c1ccccc1-c1ccccc1` [Example 15, Biphenyl-2-carboxylic acid{3-chloro-4-[3-(4-morpholino-1piperidine-1-carbonyl)-5H,11H-pyrrolo[2,1-c][1,4]benzodiazepine-10-carbonyl]-phenyl}-amide.] it was 19.3 ml/4 hrs; in that of `CN1CCN(NC(=O)c2ccc3n2Cc2ccccc2N(C(=O)c2ccc(NC(=O)c4ccccc4-c4ccccc4)cc2Cl)C3)CC1` [Example 13, Bilphenyl-2-carboxylic acid{3-chloro-4-[3-(4-methyl-piperazine-1 aminocarbonyl)-5H,11H-pyrrolo[2,1-c][1,4]benzodiazepine-10-carbonyl]-phenyl}-amide.], 16.8 ml/4 hrs; in that of `O=C(Nc1ccc(C(=O)N2Cc3ccc(C(=O)N4CCC(N5CCCCC5)CC4)n3Cc3ccccc32)c(Cl)c1)c1ccccc1-c1ccccc1` [Example 11, Biphenyl-2-carboxylic acid{3-chloro-4-[3-(4-piperidinyl-pilperidine-1-carbonyl)-5H,11H-pyrrolo[2,1-c][1,4]benzodiazepine-10-carbonyl]-phenyl}-amide.], 20.5 ml/4 hrs.
With `O=C(Nc1cc(C(=O)N2Cc3ccc(C(=O)C(Cl)(Cl)Cl)n3Cc3ccccc32)ccc1Cl)c1ccccc1-c1ccccc1` [Example 6, N-[5-[3-trichloromethylcarbnyl]-[5H-pyrrolo-[2,1-c]-[1,4]-benzdiazalin-10(11H)-ylcarbonyl]-2-chloronhenyl]-2-henylbenzamide], the IC50 in experiment [1] is 5.6 nM.
For the molecule `CN(C)NC(=O)c1ccc2n1Cc1ccccc1N(C(=O)c1ccc(NC(=O)c3ccccc3-c3ccccc3)cc1Cl)C2` [Example 8], in experiment [2], the “Urine Volume (ml/4 hrs) 10 mg/kg rat p.o.” value is recorded as 40.9 ml/4 hrs.
In the case of `COc1cc(NC(=O)c2ccccc2-c2ccccc2)ccc1C(=O)N1Cc2ccc(C(=O)NN(C)C)n2Cc2ccccc21` [Example 17], the “Urine Volume (ml/4 hrs) 10 mg/kg rat p.o.” value in experiment [2] is on record as 9.4 ml/4 hrs.
`COc1cc(NC(=O)c2ccccc2-c2ccccc2)ccc1C(=O)N1Cc2ccc(C(=O)N3CCN(C)CC3)n2Cc2ccccc21` [Example 16]: the “Urine Volume (ml/4 hrs) 10 mg/kg rat p.o.” value in experiment [2] was 24.3 ml/4 hrs.

Usually IC50 stands for the concentration at which inhibition is half-maximal.

The record behind these values is US5880122A, “3-Carboxamide derivatives of 5H-pyrrolo[2,1-c][1,4]-benzodiazepines” (American Home Products Corporation, priority 1997, dated 1999).
